Experimental data published in the METLIN SMRT retention time set (Domingo-Almenara et al. 2019).

Test: gradient 5% acetonitrile 3 min, to 50% in 2 min, to 85% in 15 min, held 3 min, 100 µL/min
Details: column: Zorbax Extend-C18 2.1 x 50 mm; eluents: water / acetonitrile, 0.1% formic acid
Outline: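 The system's dead and dwell volumes were 40 μL and 900 μL, with a Zorbax Extend-C18 column (2.1 × 50 mm, 1.8 μm) run at 100 μL/min in water and acetonitrile containing 0.1% formic acid each. Pure standards were analyzed in mixtures of ~100 molecules by HPLC–quadrupole time-of-flight mass spectrometry in positive and negative ionization mode. Retention time was assigned from computationally picked, manually inspected adduct peaks.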

Row | Structure (SMILES) | RP-LC retention time
1 | O=S(=O)(c1cccc2cccnc12)N1CCc2nc(-c3ccc(Cl)cc3)ncc2C1 | 1140 s
2 | O=C(Nc1ccc(F)cc1)N1CC2CN(S(=O)(=O)c3ccccc3)CC(C1)O2 | 752 s
3 | Cc1cnn(Cc2c(C(=O)N3C[C@@H](C(N)=O)[C@H](c4nc(C)no4)C3)noc2C)c1 | 590 s
4 | COC(=O)c1cc(Nc2ccc(OC)cc2OC)c2ccccc2n1 | 581 s
5 | COc1cccc(N2CCN(c3ccnc(SCC(=O)Nc4ccc(OC)c(Cl)c4)n3)CC2)c1 | 754 s
6 | Cc1cc(OCC(=O)Nc2ccnn2Cc2ccco2)cc(C)c1Cl | 953 s
7 | CC(C)(C)OC(=O)Cn1cnc2c(-c3ccc(Br)cc3)csc2c1=O | 1140 s
8 | O=C(Cc1ccccc1)N1[C@H]2CC[C@@H]1c1cnc(-c3ccccc3)nc1C2 | 898 s
9 | Cc1cc(C)cc(-c2nc(C3CC(=O)N(c4ccc(Cl)cc4)C3)no2)c1 (configuration not stated) | 1200 s
10 | COc1cc(-c2nc(C3CC(=O)N(c4ccc(F)cc4)C3)no2)cc(OC)c1OC (configuration not stated) | 901 s
11 | CNC(=O)c1[nH]c2ccc(F)cc2c1N1CCCC1=O | 658 s
12 | COC(=O)c1cc(S(=O)(=O)N2CCCC2C(=O)Nc2cc(OC)cc(OC)c2)cn1C (configuration not stated) | 867 s
13 | O=C(Cc1ccccc1)NCc1nc(-c2cccc(-c3csc(C4CC4)n3)c2)no1 | 1070 s
14 | COCCCN1C(=O)c2ccc(-c3ccco3)n2CC1(C)C(=O)NCc1ccccc1 (configuration not stated) | 817 s
15 | CCNC(=O)C1CCN(S(C)(=O)=O)c2cc(Cl)ccc2O1 (configuration not stated) | 736 s
16 | CC1CCC2(CC1)NC(=O)N(CC(=O)N(C)c1ccccc1)C2=O (configuration not stated) | 805 s
17 | Cc1ccccc1CC(=O)NC1CCN(c2ccccc2)C1=O (configuration not stated) | 811 s
18 | CCc1ccc(-c2nc(C3CC(=O)N(c4ccc(Cl)cc4)C3)no2)cc1 (configuration not stated) | 1020 s
19 | CCOc1ccc(C(=O)NCc2nnc3n2CCCC3)cc1OCC | 674 s
20 | CC(CNC(=O)CN1C(=O)CCCc2ccccc21)c1ccccc1 (configuration not stated) | 836 s
21 | CN(C)CCNc1ccc(-c2nc(-c3cccc(F)c3)no2)cn1 | 678 s
22 | O[C@@H]1CCCCC1N1CCC(c2ccccc2)CC1 (some centres not stated) | 702 s
23 | COc1ccc(-c2noc(-c3nc(Cc4ccccc4)no3)n2)cc1OC | 1100 s
24 | COc1ccc(OCC(=O)N2CCN(c3ccc(-c4nc(C)c(C)s4)cn3)CC2)cc1 | 855 s
25 | Cc1cccc(C)c1Nc1c(-c2ccc(N3CCOCC3)cc2)nc2ncccn12 | 721 s
26 | O=C(NCC1CCCO1)C1CCN(Cc2cc3ccccc3n2Cc2ccccc2Cl)CC1 (configuration not stated) | 731 s
27 | CC(C)N1CC2(CCN(S(=O)(=O)c3ccccc3)CC2)C1c1ccccc1 (configuration not stated) | 690 s
28 | COc1ccc(OC)c(NC(=O)NCCc2cn(C)c3ncccc23)c1 | 686 s
29 | O=C(Nc1ccc(C(=O)N2CCOCC2)cc1)c1cnn2c(C(F)F)cc(-c3ccccc3)nc12 | 892 s
30 | Cc1cc(C)n(Cc2nc(-c3ccc(NC(=O)COc4ccccc4)cc3)oc2C)n1 | 974 s

Second part, the molecule after the results:

Row | RP-LC retention time | Structure (SMILES)
31 | 668 s | Cn1ncc2c3ccccc3n(CC(=O)N3CCN(C(=O)c4ccco4)CC3)c2c1=O
32 | 657 s | CCN(CC)C(=O)c1cc(=O)[nH]c2c(C)cccc12
33 | 822 s | CCCN1C(=O)c2c(C(=O)Nc3ccccc3Cl)ncn2CC1(C)C(=O)NC1CCCC1 (configuration not stated)
34 | 636 s | Cc1cc(C(=O)N2CCC3(CCC3O)CC2)no1 (configuration not stated)
35 | 874 s | CC(=O)Nc1ccc(Cc2nc(-c3cccc(-c4ccnn4C)c3)no2)cc1
36 | 602 s | O=C(NCCCN1CCOCC1)c1nc2ccccn2c1-c1ccc(F)cc1
37 | 847 s | O=C(C1CCC1)N1CCc2sc(S(=O)(=O)NCc3ccccc3)cc2C1
38 | 787 s | O=C(NC1CCCC1)N1CCN(Cc2nc3cc(-c4ccccc4)ccc3o2)CC1
39 | 774 s | CC(C)CNC(=O)c1ccc2c(c1)CCCN2S(C)(=O)=O
40 | 851 s | COCCc1noc(C2Cc3ccccc3N2C(=O)Nc2ccc(OC)c(OC)c2)n1 (configuration not stated)
41 | 687 s | Cc1cc(=O)n(CC(=O)Nc2ccc(F)c(F)c2)c(N2CCOCC2)n1
42 | 684 s | COc1cc(-c2nc3c(C)cccn3c2Nc2ccc(C)cc2)ccc1O
43 | 607 s | Cc1nc2cccnc2n1CCN1CCN(C(=O)Nc2cccc(Br)c2)CC1
44 | 783 s | CCN(c1cccc(C)c1)S(=O)(=O)c1cc2n(c1)CCCN(C)C2=O
45 | 788 s | CCSc1nnc(NC(=O)CCc2csc(NC(=O)c3cccs3)n2)s1
46 | 598 s | CN(C)CCNCc1ccc(-c2ccc(Br)cc2)o1
47 | 758 s | COc1ccccc1-n1nnc(C(=O)Nc2nc(C)cs2)c1-c1ccccn1
48 | 1020 s | Cc1ccccc1-c1nnc(SCC(=O)N2CCC(C)CC2)o1
49 | 1140 s | Cc1sc(-c2noc(C(C)C)n2)cc1S(=O)(=O)N1CCC(C(=O)NC2CCCCCC2)CC1

Row | RP-LC retention time | Structure (SMILES)
50 | 999 s | CCc1ccc(S(=O)(=O)N2CCC(C(=O)NCc3csc(-c4ccccc4)n3)CC2)cc1
51 | 917 s | O=C(Nc1cccc(C(F)(F)F)c1)N1CC(c2nc(-c3cccs3)no2)C1
52 | 621 s | CCOCC(=O)N1CCCn2cc(-c3ccccc3)nc21
53 | 660 s | Cn1c(NC(=O)c2ccc(Cl)cc2)cc(=O)n(C)c1=O
54 | 651 s | COc1ccc(CNC(=O)Cn2nc3c4ccccc4ncn3c2=O)cc1
55 | 735 s | CC1SC(C)C(=O)N(CC(=O)Nc2ccc3c(c2)OCCO3)C1=O (configuration not stated)
56 | 772 s | Cc1nc2ccc3nc(NC(=O)c4snnc4C)sc3c2s1
57 | 904 s | CC(C)(C)CC(=O)N1CC(c2nc(-c3ccccc3)no2)C2(CCOCC2)C1 (configuration not stated)
58 | 1030 s | Nc1ncnc2c1c(-c1ccc(Oc3ccccc3)cc1)cn2C1CCCC1
59 | 600 s | COc1ccc(-n2c(=O)n(C)c(=O)c3cc(C(=O)NCc4ccccn4)cnc32)cc1
60 | 721 s | O=C(Cn1ccn2nc(-c3ccccc3)c(CO)c2c1=O)NC1CCCC1
61 | 739 s | CC(C)(C)C(O)CCNC(=O)NCc1ccc(Cl)cc1 (configuration not stated)
62 | 618 s | COc1ccccc1NC(=O)CSc1ccc(N2CCCC(C(=O)NC3CC3)C2)nn1 (configuration not stated)
63 | 703 s | CCOc1ccc(NC(=O)NCC(c2cccnc2)c2cn(C)c3ccccc23)cc1 (configuration not stated)
64 | 973 s | Cc1cc(-c2nnc(-c3ccccc3)o2)c(C)n1CC(=O)NCc1cccc(Cl)c1
65 | 952 s | CCOC(=O)c1cc(C2CC2)nc2c1c(=O)n(CC(=O)NC1CCCC1)c(=O)n2C
66 | 654 s | CCOc1ccc(-n2c(CN3CCN(C(=O)NCC(C)C)CC3)nc3cccnc32)cc1
67 | 771 s | CCc1cc(=O)n(CC(=O)Nc2cc(Cl)ccc2C)c(N2CCOCC2)n1
